Data on 27 molecules can be found in patent US20050249675A1, “Mucin synthesis inhibitors” (priority 2003, published 2005).

Molecules are shown by their SMILES. pIC50: −log10 of the molar value. Like-named read-outs stand apart in the source and are kept apart here.

Series [1] relates to H292 clone 15 cells. The series can be described thus: ELLA for MUC5AC, H292 clone 15 cells (Example 11). It is filed as cell-based, human. The note with it: Homo sapiens, NCI-H292; MUC5AC in conditioned media; 48 hours; average of 3 experiments. The procedure: ELLA (Enzyme-Linked Lectin Assay) was used to determine the inhibitory effect of compounds on mucus production by H292 clone 15 cells. H292 clone 15 cells, a subclone from human pulmonary mucoepidermoid carcinoma cells overexpressing hCLCA1, were grown to confluent, followed by incubation with increasing concentrations of compounds for 48 hours. Conditioned media were collected and MUC5AC (the major secretory mucin in lungs) content was determined by ELLA measurement as described below. 96 well microtiter plates were coated with a mouse monoclonal antibody against human MUC5AC (1-13M1, NeoMarkers), then incubated with test conditioned media. Bound MUC5AC was detected by horseradish peroxidase-conjugated soybean lectin that has a high affinity towards highly-glycosylated proteins such as MUC5AC. Conversion of peroxidase substrate TMB (Tetramethylbenzidine Base) was quantified by reading at 450 nm. O.D. (optical density) readings were plotted against concentrations of compounds. Linear regression was used to derive the concentration at which O.D. was reduced by 50% (IC50) when compared to vehicle-treated cells.

For series [2], the system named is H292 clone 15 cells. As to the kind of experiment: Alamar Blue cytotoxicity. The note with it: H292 clone 15 cells; 48 hours; average of 3 experiments.
In series [3] the test system is activated Caco2 cells. The note with it: Caco-2.
In the next series the test system is NCI-H292/hCLCA1 cells. The series can be described thus: AB/PAS staining of mucous glycoconjugates in NCI-H292/hCLCA1 cells. The note with it: NFA 100 μM, MFA 125 or 250 μM, talniflumate 12.5, 25 or 50 μM; vs untreated cells. It is filed as cell-based, human. The procedure:
For the determination of mucous glycoconjugate production, NCI-H292/ctl and NCI-H292/hCLCA1 (AAF 15) cells were cultured in 24-well plates for 3 days. Cells were then fixed with Formalin and mucous glycoconjugates were visualized by AB/PAS staining (Sigma). […] For chloride channel blockage studies, cells were cultured in the presence of niflumic acid (NFA) (Sigma) at 100 μM concentration, mefanamic acid (MFA) at 125 or 250 μM or talniflumate at 12.5, 25 or 50 μM, or media alone.
For the determination of mucous glycoconjugate production, NCI-H292/hCLCA1 cells were cultured in 24-well plates for 3 days with at concentrations of 0 to 150 μM of the talniflumate enantiomers or media alone (control). Cells were then fixed with Formalin and mucous glycoconjugates were visualized by AB/PAS staining (Sigma). […] In this assay both enantiomers were seen to inhibit muco-glycoconjugate production at concentrations>40 μM.

Series [4] deals with MUC5A/C secretion in hCLCA1 expressing H292 cells. The series can be described thus: MUC5A/C secretion by ELLA in hCLCA1 expressing H292 cells. The series is classed as cell-based, human. On the set-up: key to ELLA: (+) = inhibition; (−) = no inhibition.
Series [5] concerns activated Caco2 cells. The series can be described thus: PAS staining for mucin in activated Caco2 cells.
For series [6], the system named is murine chloride channel, mCLCA1. As to the kind of experiment: Patch clamp chloride current, HEK293 cell expressing mCLCA1. The series is classed as cell-based. The note with it: for Chloride Current: + ionomycin + Ca. The procedure:
A HEK293 cell transfected with a plasmid expressing a murine chloride channel, mCLCA1, was patch clamped and chloride current was measured over a range of voltages (V, left column) and the results are shown in Table 3 below. Each row lists currents invoked at a particular positive voltage in the absence (−) or presence (+) of ionomycin and calcium, and in the presence of an indicated concentration of diclofenac (μM). Substantial current was invoked by the addition of 2 μM ionomycin and 2 mM calcium-compare the first two columns-indicating activation of mCLCA1 by the ionomycin/calcium treatment. For example, at 100 mV of positive voltage, the chloride current was increased from 39 nA/pF to 105 nA/pF.

As to `O=C(O)c1ccccc1CCC(=O)c1cccnc1Oc1ccccc1` [Compound 10], in the series on H292 clone 15 cells [1], the pIC50 is 4.36. Further, the “Est. LD50 (Alamar Blue)” value in the series on H292 clone 15 cells [2] came out at 885 µM.

In the series with H292 clone 15 cells [1], `O=C1OC(CC(=O)c2cccnc2Oc2ccc(F)cc2F)c2ccccc21` (stereo not shown) [Compound 12] gave a pIC50 of 5.72. Further, in the series with H292 clone 15 cells [2], the “Est. LD50 (Alamar Blue)” value amounted to 22 µM.

Take `COc1ccc2cc([C@H](C)C(=O)O)ccc2c1` [Naproxen]: the “Mucin production by activated Caco2 cells” value in the series with activated Caco2 cells [3] is “ineffective”.

Consider `Cc1cccc(Nc2ccccc2C(=O)O)c1C` [Mefenamate], for which the “PAS positive staining muco-glycoconjugates” value with NCI-H292/hCLCA1 cells was “significantly fewer positive staining muco-glycoconjugates”. Moreover, the “Mucin production by activated Caco2 cells” value with activated Caco2 cells [3] is listed as “partially”.

The molecule `O=C1OC(CC(=O)c2cccnc2Oc2cccc(Cl)c2)c2ccccc21` (stereo not shown) [Compound 11] showed a pIC50 in the series with H292 clone 15 cells [1] of 5.70. For the same molecule, the “Est. LD50 (Alamar Blue)” value in the series with H292 clone 15 cells [2] is 23 µM.

In the series on H292 clone 15 cells [1], `O=C(O)c1ccccc1CCC(=O)c1ccccc1Nc1cccc(C(F)(F)F)c1` [Compound 8] showed a pIC50 of 5.00. Besides, in the series with H292 clone 15 cells [2], the “Est. LD50 (Alamar Blue)” value was 30 µM.

`COC(=O)c1ccccc1/C=C/C(=O)c1cccnc1Nc1cccc(C(F)(F)F)c1` [Compound 2]: the pIC50 in the series on H292 clone 15 cells [1] was 5.40. Also, the “Est. LD50 (Alamar Blue)” value in the series with H292 clone 15 cells [2] amounted to 16 µM.

On to `O=C1OC(CC(=O)c2cccnc2Oc2cccc(Br)c2)c2ccccc21` (stereo not shown) [Compound 14], for which the pIC50 in the series on H292 clone 15 cells [1] is 5.64. Besides, the “Est. LD50 (Alamar Blue)” value with H292 clone 15 cells [2] worked out at 16 µM.

Turning to `Cc1cccc(Nc2ccccc2C(=O)CCc2ccccc2C(=O)O)c1C` [Compound 6], the pIC50 with H292 clone 15 cells [1] was 5.52. The “Est. LD50 (Alamar Blue)” value in the series on H292 clone 15 cells [2] was determined as 27 µM.

Turning to `O=C(CC1OC(=O)c2ncccc21)c1cccnc1Nc1cccc(C(F)(F)F)c1` (stereo not shown) [Compound 1], in the series with H292 clone 15 cells [1], the pIC50 was 5.70. Moreover, in the series on H292 clone 15 cells [2], the “Est. LD50 (Alamar Blue)” value came to 11 µM.

The molecule `O=C(CC1OC(=O)c2ccccc21)c1ccccc1Nc1cccc(C(F)(F)F)c1` (stereo not shown) [Compound 7] showed a pIC50 in the series on H292 clone 15 cells [1] of 4.62. Further, the “Est. LD50 (Alamar Blue)” value in the series with H292 clone 15 cells [2] worked out at 69 µM.

For the molecule `O=C1OC(CC(=O)c2cccnc2Oc2ccccc2)c2ccccc21` (stereo not shown) [Compound 9], the pIC50 in the series on H292 clone 15 cells [1] is 5.30. Moreover, the “Est. LD50 (Alamar Blue)” value with H292 clone 15 cells [2] is 43 µM.

`Cc1ccc(Cl)c(Nc2ccccc2C(=O)O)c1Cl` [Meclofenamate]: the “Mucin production by activated Caco2 cells” value in the series on activated Caco2 cells [3] is on record as “partially”.

In turn, `O=C1OC(CC(=O)c2cccnc2Oc2cccc(Cl)c2Cl)c2ccccc21` (stereo not shown) [Compound 13] gave a pIC50 in the series on H292 clone 15 cells [1] of 6.00. For the same molecule, the “Est. LD50 (Alamar Blue)” value with H292 clone 15 cells [2] was found to be 10 µM.

In the case of `COC(=O)c1cccnc1Nc1cccc(C(F)(F)F)c1` [1 (MSI 2213), Niflumic acid methyl ester], in series [4] (Table 2, mucin production), the ELLA result is on record as “−”.

For the molecule `CC1=C(CC(=O)O)c2cc(F)ccc2/C1=C\c1ccc([S+](C)[O-])cc1` (stereo not shown) [Sulindac], in the series with activated Caco2 cells [3], the “Mucin production by activated Caco2 cells” value is on record as “ineffective”.

In the series on H292 clone 15 cells [1], `O=C(CC1OC(=O)c2ccccc21)c1ccccc1Sc1ccccc1Cl` (stereo not shown) [Compound 15] had a pIC50 of 5.60. Moreover, the “Est. LD50 (Alamar Blue)” value in the series on H292 clone 15 cells [2] amounted to 15 µM.

On to `O=C1OC(OC(=O)c2cccnc2Nc2cccc(C(F)(F)F)c2)c2ccccc21` (single isomer, unassigned; enantiomer 2) [enantiomer 2], for which, in series [4] (NCI-H292/hCLCA1 cells, 0 through 150 μM, 48 hours, FIG. 26, read-out: IC50, inhibition of MUC5A/C secretion), the pIC50 is 4.40.

In the case of `Cc1c(Cl)cccc1Nc1ccccc1C(=O)O` [Tolfenamate], in the series on activated Caco2 cells [5] (FIG. 2), the “Mucin production by activated Caco2 cells” value was “inhibited”.

In the series with H292 clone 15 cells [1], `Cc1cccc(Nc2ccccc2C(=O)CC2OC(=O)c3ccccc32)c1C` (stereo not shown) [Compound 5] had a pIC50 of 5.40. Besides, the “Est. LD50 (Alamar Blue)” value in the series with H292 clone 15 cells [2] worked out at 35 µM.

Take `O=C1OC(OC(=O)c2cccnc2Nc2cccc(C(F)(F)F)c2)c2ccccc21` (single isomer, unassigned; enantiomer 1) [enantiomer 1]: the “IC50, inhibition of MUC5A/C secretion” value in series [4] (NCI-H292/hCLCA1 cells, 0 through 150 μM, 48 hours, FIG. 26) was “not inhibitory”.

In the case of `O=C(O)c1ccccc1Nc1cccc(C(F)(F)F)c1` [Flufenamate], the “Mucin production by activated Caco2 cells” value in the series with activated Caco2 cells [3] was “inhibited”.

Take `CS(=O)(=O)Nc1ccc([N+](=O)[O-])cc1Oc1ccccc1` [Nimesulide]: the “Inhibition of MUC5A/C secretion / mucin production (figure legends)” value in series [4] (hCLCA1 expressing H292 cells, 48 hours) is listed as “inhibition of MUCSA/C secretion”.

Take `O=C(O)Cc1ccccc1Nc1c(Cl)cccc1Cl` [diclofenac]: the “Inhibition of chloride channel activity” value in series [6] (diclofenac 5 μM to 50 μM) is on record as “did not inhibit chloride channel activity”. Besides, the “Chloride Current” value in series [6] (diclofenac 5 μM, 0 mV) is listed as 20 nA/pF; in series [6] (diclofenac 5 μM, 20 mV) it was 36 nA/pF; in series [6] (diclofenac 5 μM, 40 mV) it was 53 nA/pF; in series [6] (diclofenac 5 μM, 60 mV) it was 72 nA/pF; in series [6] (diclofenac 5 μM, 80 mV) it was 92 nA/pF; in series [6] (diclofenac 5 μM, 100 mV) it was 115 nA/pF. The “Chloride Current” value in series [6] (diclofenac 20 μM, 0 mV) came out at 20 nA/pF; in series [6] (diclofenac 20 μM, 20 mV), 34 nA/pF; in series [6] (diclofenac 20 μM, 40 mV), 51 nA/pF; in series [6] (diclofenac 20 μM, 60 mV) it was 69 nA/pF; in series [6] (diclofenac 20 μM, 80 mV), 88 nA/pF; in series [6] (diclofenac 20 μM, 100 mV), 109 nA/pF. The “Chloride Current” value was found to be 19 nA/pF in series [6] (diclofenac 50 μM, 0 mV); 33 nA/pF in series [6] (diclofenac 50 μM, 20 mV); 48 nA/pF in series [6] (diclofenac 50 μM, 40 mV); 66 nA/pF in series [6] (diclofenac 50 μM, 60 mV); 85 nA/pF in series [6] (diclofenac 50 μM, 80 mV); 106 nA/pF in series [6] (diclofenac 50 μM, 100 mV).

For `O=S(=O)(O)c1cc(N=C=S)ccc1C=Cc1ccc(N=C=S)cc1S(=O)(=O)O` [DIDS, 4,4′-diisothiocyanostilbene-2,2′-disulfonic acid], the “PAS positive staining mucin glycoconjugates” value in the series on activated Caco2 cells [5] (activated Caco2 cells, 100 μm for NFA and 300 μm for DIDS, vs untreated cells) was “significantly fewer positive staining mucin glycoconjugates”.

For `Cc1c(Cl)cccc1Nc1ccccc1C(=O)CC1OC(=O)c2ccccc21` (stereo not shown) [Compound 3], the pIC50 in the series with H292 clone 15 cells [1] is 5.92. Moreover, in the series on H292 clone 15 cells [2], the “Est. LD50 (Alamar Blue)” value came out at 19 µM.

In the series with H292 clone 15 cells [1], `Cc1c(Cl)cccc1Nc1ccccc1C(=O)CCc1ccccc1C(=O)O` [Compound 4] showed a pIC50 of 5.80. In addition, the “Est. LD50 (Alamar Blue)” value in the series with H292 clone 15 cells [2] is 27 µM.
